Consider three compounds from US7923021B2, “Local delivery method and composition” (University of Memphis Research Foundation, priority 2007, dated 2011).

Data set [1] can be described thus: Elution of antibiotic from pellets or flakes into PBS at 37° C., Fluorescence Polarization Immunoassay. Format: physicochemical. As to conditions: from rapidly resorbing pellets loaded with 4% antibiotic, FIG. 2. How it is done:
Elution was characterized by placing groups of eight pellets or the flakes of eight pellets (n≧3) in 20 ml phosphate buffered saline (PBS) in a 37° C. water bath. At specified times (t=1, 4, 8, 12, 24, 36, 48, 72, 96, 120, 144, 168, 240 hours), aliquots were removed and frozen at -40° C. At each time interval, the pellets were removed and placed in 20 ml fresh PBS. The amount of antibiotic in the eluates was determined (μg/ml) using a Florescence Polarization Immunoassay ([…], Abbott Laboratories, Abbott Park, Ill.). Testing was repeated for three batches of pellets.

In data set [2] the test system is Pseudomonas aeruginosa strain ATCC 27317. In words: Biological activity testing of eluates and antibiotic dilutions, growth in TSB, A530. The class given is cell-based. As to conditions: P. aeruginosa ATCC 27317, observed. How it is done:
Pseudomonas aeruginosa strain ATCC 27317 was used for biological activity testing of AmikacinTM and GentamicinTM eluates. A clinical isolate of Staphylococcus aureus Cowan I strain was used to assess activity of VancomycinTM eluates. The eluate having the lowest concentration for each antibiotic at each of the specified time points was used in the biological activity assay. P. aeruginosa or S. aureus was grown overnight at 37° C. in Trypticase soy broth (TSB). Conical tubes were prepared with 1.75 ml of TSB and 200 μl of antibiotic dilutions (AmikacinTM: 0-640 μg/ml, GentamicinTM: 0-2560 μg/ml, VancomycinTM: 0-160 μg/ml), or 200 μl eluate samples, or 200 μl buffer. All tubes except blanks were inoculated with 50 μl of 1:50 dilution of bacteria. Blanks were supplanted with an additional 50 μl of TSB instead of bacteria. The tubes were vortexed and incubated at 37° C. for 24 hours. A blank was used to adjust the spectrophotometer to zero, and the absorbance at 530 nm ([…]) was recorded. Results were reported as percent growth relative to control, calculated as ([…] sample/[…] control)×100. This method dilutes the sample concentration by a factor of 10. Testing was repeated for three replicates of the samples.

Values after ≈ are worked out from the molar mass of the structure shown.

As to `NCC[C@H](O)C(=O)N[C@@H]1C[C@H](N)[C@@H](O[C@H]2O[C@H](CN)[C@@H](O)[C@H](O)[C@H]2O)[C@H](O)[C@H]1O[C@H]1O[C@H](CO)[C@@H](O)[C@H](N)[C@H]1O` [Amikacin™, Amikacin], in data set [1], the “Elution profile (qualitative)” value was “peak at hour one and decrease exponentially”. Besides, in data set [2] (Pseudomonas aeruginosa, ATCC27317, read-out: minimum inhibitory concentration (MIC)), the MIC came out at 4 µg/mL (≈ 6.83 µM).
On to `CN[C@H](CC(C)C)C(=O)N[C@H]1C(=O)N[C@@H](CC(N)=O)C(=O)N[C@H]2C(=O)N[C@H]3C(=O)N[C@H](C(=O)N[C@H](C(=O)O)c4cc(O)cc(O)c4-c4cc3ccc4O)[C@H](O)c3ccc(c(Cl)c3)Oc3cc2cc(c3O[C@@H]2O[C@H](CO)[C@@H](O)[C@H](O)[C@H]2O[C@H]2C[C@](C)(N)[C@H](O)[C@H](C)O2)Oc2ccc(cc2Cl)[C@H]1O` [Vancomycin™, Vancomycin], for which the “Elution profile (qualitative)” value in data set [1] is on record as “burst of antibiotic in hour one”.
Consider Gentamicin [Gentamicin™], for which, in data set [1], the “Elution profile (qualitative)” value was “peak at hour one and decrease exponentially”. In addition, the “minimum inhibitory concentration (MIC)” value in data set [2] worked out at 4.0 µg/mL.
